Experiments:
[1] = human absorption data, from Ertl et al., J. Med. Chem, 2000; cited from earlier work
[2] = target: T1, NHE3 (Homo sapiens, UniProt P48764); assay: persistent inhibition of NHE3 in the cell-based assay of example 181 (4-chloro vs 4-cyano pairs); conditions: for IC50: read-out: pIC50 (persistent) (converted); for Percent Inhibition: cell-based assay of example 181, persistent
T1 construct: expressed in transfected cells
T1 sequence (P48764 26-834): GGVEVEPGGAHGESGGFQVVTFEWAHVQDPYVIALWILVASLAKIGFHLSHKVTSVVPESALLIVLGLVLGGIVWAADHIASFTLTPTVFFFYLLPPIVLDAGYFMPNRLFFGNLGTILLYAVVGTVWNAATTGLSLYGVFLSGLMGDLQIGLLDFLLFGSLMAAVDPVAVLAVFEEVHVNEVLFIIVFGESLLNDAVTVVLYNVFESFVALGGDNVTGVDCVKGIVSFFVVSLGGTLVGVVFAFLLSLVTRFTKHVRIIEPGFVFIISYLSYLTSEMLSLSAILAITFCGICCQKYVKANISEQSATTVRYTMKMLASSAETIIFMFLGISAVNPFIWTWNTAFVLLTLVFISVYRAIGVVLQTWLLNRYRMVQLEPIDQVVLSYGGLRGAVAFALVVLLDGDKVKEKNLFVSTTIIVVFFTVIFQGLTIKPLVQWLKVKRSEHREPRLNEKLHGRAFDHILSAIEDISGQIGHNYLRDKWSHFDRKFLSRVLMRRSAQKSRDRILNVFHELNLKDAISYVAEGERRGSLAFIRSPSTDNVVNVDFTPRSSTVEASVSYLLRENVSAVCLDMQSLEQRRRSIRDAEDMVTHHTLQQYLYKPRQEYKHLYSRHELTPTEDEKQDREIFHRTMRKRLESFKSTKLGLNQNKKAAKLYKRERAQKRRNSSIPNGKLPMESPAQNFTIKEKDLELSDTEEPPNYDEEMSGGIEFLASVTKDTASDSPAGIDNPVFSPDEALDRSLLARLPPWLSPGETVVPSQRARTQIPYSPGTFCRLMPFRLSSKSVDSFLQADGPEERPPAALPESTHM
T1 sequence (Q99653 2-195 partner limits assumed): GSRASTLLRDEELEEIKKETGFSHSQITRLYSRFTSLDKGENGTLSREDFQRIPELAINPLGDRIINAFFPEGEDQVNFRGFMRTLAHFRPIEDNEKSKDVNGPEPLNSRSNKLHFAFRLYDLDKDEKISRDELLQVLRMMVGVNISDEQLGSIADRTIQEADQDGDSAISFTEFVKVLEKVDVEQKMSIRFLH
Description: The following pairs of compounds differ only in the 4-position substituent (either chloro (X—Cl) or cyano (X—CN)):
The ability of compounds to inhibit human and rat NHE-3-mediated Na^+ dependent H^+ antiport after application and washout was measured using a modification of the pH sensitive dye method described above. PS120 fibroblasts stably expressing human NHE3 and NHERF2 were obtained from Mark Donowitz (Baltimore, Md.). Opossum kidney (OK) cells were obtained from the ATCC and propagated per their instructions. The rat NHE-3 gene was introduced into OK cells via electroporation, and cells were seeded into 96 well plates and grown overnight. Medium was aspirated from the wells, cells were washed once with NaCl-HEPES buffer (100 mM NaCl, 50 mM HEPES, 10 mM glucose, 5 mM KCl, 2 mM CaCl2, 1 mM MgCl2, pH 7.4), then overlayed with NaCl-HEPES buffer containing 0-30 μM test compound. After a 60 min incubation at room temperature, the test drug containing buffer was aspirated from the cells. Following aspiration, cells were washed once with NaCl-HEPES buffer without drug, then incubated for 30 min at 37° C. with NH4Cl-HEPES buffer (20 mM NH4Cl, 80 mM NaCl, 50 mM HEPES, 5 mM KCl, 2 mM CaCl2, 1 mM MgCl2, pH 7.4) containing 5 μM BCECF-AM. Cells were washed once with Ammonium free, Na^+-free HEPES (100 mM choline, 50 mM HEPES, 10 mM glucose, 5 mM KCl, 2 mM CaCl2, 1 mM MgCl2, pH 7.4) and incubated in the same buffer for 10 minutes at room temperature to lower intracellular pH. NHE-3-mediated recovery of neutral intracellular pH was initiated (10 min after compound washout) by addition of Na-HEPES buffer. […] Changes in intracellular pH were monitored using a FLIPR Tetra® (Molecular Devices, Sunnyvale, Calif.) by excitation at λex 439 to 505 nm, and measuring BCECF fluorescence at λem 538 nm. The initial rate of the fluorescence ratio change was used as a measure of NHE-mediated Na^+/H^+ activity, and reported as the change in fluorescence ratio per minute.

[3] = system: gastrointestinal transit; assay: Restoration of gastrointestinal motility in opioid induced constipation (loperamide); format: in vivo, mice; conditions: vehicle orally, loperamide (0.3 to 6 mg/kg) subcutaneously, 30-minute period
Description: Approximately eight-week old, female, CD1 […] are purchased from Envigo (Livermore, Calif.), are housed 4 per cage and acclimated for at least 48 hours before study initiation. Animals are fed standard laboratory rodent chow Harlan Teklad Global 2018 (Madison, Wis.). Animals have ad libitum access to food and water for the duration of the acclimation period and are maintained in a temperature and humidity controlled room on a standard light/dark cycle of 6 AM to 6 PM. Following an overnight fast, with free access to water, animals are dosed by oral gavage with varying doses of test compound or vehicle (3 mM HCl, 0.01% Tween80), at a dose volume of 5 mL/kg. […] For an individual animal, the length travels by the Evans Blue dye front is divided by the length of the whole small intestine, measured from the pylorus to the cecum, and multiplied by 100, to provide the distance of the small intestine travelled by the dye as a percentage.

[4] = cell-based assay of example 181, after washout

Structure (SMILES) | % FA [1] | further results
OC[C@H]1O[C@@H](O[C@@H]2[C@@H](CO)OC(O)(CO)[C@H]2O)[C@H](O)[C@@H](O)[C@H]1O (mixture of isomers) [lactulose, reference compound] | 0.6% | –
CN(C)[C@@H]1CCCN([C@H]2Cc3c(Cl)cc(Cl)cc3[C@@H]2Oc2ccc(S(=O)(=O)NCCOCCOCCNC(=O)NCCCCNC(=O)NCCOCCOCCNS(=O)(=O)c3ccc(O[C@H]4c5cc(Cl)cc(Cl)c5C[C@@H]4N4CCC[C@@H](N(C)C)C4)cc3)cc2)C1 [E-Cl, 3-(2-{2-[2-(4-{[(1S,2S)-4,6-dichloro-2-[(3R)-3-(dimethylamino)piperidin-1-yl]-2,3-dihydro-1H-inden-1-yl]oxy}benzenesulfonamido)ethoxy]ethoxy}ethyl)-1-(4-{[(2-{2-[2-(4-{[(1S,2S)-4,6-dichloro-2-[(3R)-3-(dimethylamino)piperidin-1-yl]-2,3-dihydro-1H-inden-1-yl]oxy}benzenesulfonamido)ethoxy]ethoxy}ethyl)carbamoyl]amino}butyl)urea] | – | IC50 [2, 4]: 5.01 nM; Percent Inhibition [2]: 99%
Cc1cc(S(=O)(=O)NCCOCCOCCNC(=O)NCCCCNC(=O)NCCOCCOCCNS(=O)(=O)c2ccc(O[C@H]3c4cc(Cl)cc(C#N)c4C[C@@H]3N3CCNCC3)c(C)c2)ccc1O[C@H]1c2cc(Cl)cc(C#N)c2C[C@@H]1N1CCNCC1 [F-CN, 3-(2-{2-[2-(4-{[(1S,2S)-6-chloro-4-cyano-2-(piperazin-1-yl)-2,3-dihydro-1H-inden-1-yl]oxy}-3-methylbenzenesulfonamido)ethoxy]ethoxy}ethyl)-1-(4-{[(2-{2-[2-(4-{[(1S,2S)-6-chloro-4-cyano-2-(piperazin-1-yl)-2,3-dihydro-1H-inden-1-yl]oxy}-3-methylbenzenesulfonamido)ethoxy]ethoxy}ethyl)carbamoyl]amino}butyl)urea] | – | IC50 [2, 4]: 2.51 nM; Percent Inhibition [2]: 88%
Cc1cc(S(=O)(=O)NCCOCCOCCNC(=O)NCCCCNC(=O)NCCOCCOCCNS(=O)(=O)c2ccc(O[C@H]3c4cc(Cl)cc(Cl)c4C[C@@H]3N3CCNCC3)c(C)c2)ccc1O[C@H]1c2cc(Cl)cc(Cl)c2C[C@@H]1N1CCNCC1 [F-Cl, 3-(2-{2-[2-(4-{[(1S,2S)-4,6-dichloro-2-(piperazin-1-yl)-2,3-dihydro-1H-inden-1-yl]oxy}-3-methylbenzenesulfonamido)ethoxy]ethoxy}ethyl)-1-(4-{[(2-{2-[2-(4-{[(1S,2S)-4,6-dichloro-2-(piperazin-1-yl)-2,3-dihydro-1H-inden-1-yl]oxy}-3-methylbenzenesulfonamido)ethoxy]ethoxy}ethyl)carbamoyl]amino}butyl)urea] | – | IC50 [2, 4]: 20 nM; Percent Inhibition [2]: 104%
N#Cc1cc(Cl)cc2c1C[C@H](N1CCNCC1)[C@H]2Oc1ccc(S(=O)(=O)NCCOCCOCCNC(=O)NCCCCNC(=O)NCCOCCOCCNS(=O)(=O)c2ccc(O[C@H]3c4cc(Cl)cc(C#N)c4C[C@@H]3N3CCNCC3)cc2)cc1 [G-CN, 3-(2-{2-[2-(4-{[(1S,2S)-6-chloro-4-cyano-2-(piperazin-1-yl)-2,3-dihydro-1H-inden-1-yl]oxy}benzenesulfonamido)ethoxy]ethoxy}ethyl)-1-(4-{[(2-{2-[2-(4-{[(1S,2S)-6-chloro-4-cyano-2-(piperazin-1-yl)-2,3-dihydro-1-yl]oxy}benzenesulfonamido)ethoxy]ethoxy}ethyl)carbamoyl]amino}butyl)urea] | – | pIC50 (persistent) [2, 4]: 9.0
O=C(NCCCCNC(=O)NCCOCCOCCNS(=O)(=O)c1ccc(O[C@H]2c3cc(Cl)cc(Cl)c3C[C@@H]2N2CCNCC2)cc1)NCCOCCOCCNS(=O)(=O)c1ccc(O[C@H]2c3cc(Cl)cc(Cl)c3C[C@@H]2N2CCNCC2)cc1 [G-Cl, 3-(2-{2-[2-(4-{[(1S,2S)-4,6-dichloro-2-(piperazin-1-yl)-2,3-dihydro-1H-inden-1-yl]oxy}benzenesulfonamido)ethoxy]ethoxy}ethyl)-1-(4-{[(2-{2-[2-(4-{[(1S,2S)-4,6-dichloro-2-(piperazin-1-yl)-2,3-dihydro-1H-inden-1-yl]oxy}benzenesulfonamido)ethoxy]ethoxy}ethyl)carbamoyl]amino}butyl)urea] | – | IC50 [2, 4]: 6.31 nM; Percent Inhibition [2]: 82%
C=CCc1ccccc1OCC(O)CNC(C)C (stereo not drawn) [alprenolol] | 96% | –
O=C(O)P(=O)(O)O [foscarnet] | 17% | –
CN(C)C(=O)C(CCN1CCC(O)(c2ccc(Cl)cc2)CC1)(c1ccccc1)c1ccccc1 [loperamide, reference compound] | – | length of the small intestine travelled by the Evans Blue dye front [3]: ~25%
OC[C@@H](O)[C@@H](O)[C@H](O)[C@H](O)CO [mannitol, reference compound] | 26% | –
Cc1ccccc1N1C(=O)c2cc(S(N)(=O)=O)c(Cl)cc2NC1C (stereo not drawn) [metolazone, Metolazone, reference compound] | 64% | –
O=C(O)c1cc(/N=N/c2ccc(O)c(C(=O)O)c2)ccc1O [olsalazine] | 2.3% | –
C=CCOc1ccccc1OCC(O)CNC(C)C (stereo not drawn) [ozprenolol] | 97% | –
Cc1cc(=O)n(-c2ccccc2)n1C [phenazone] | 97% | –
CC(C)NCC(O)COc1cccc2[nH]ccc12 (stereo not drawn) [pindolol] | 92% | –
CC(=O)Nc1ccc(OCC(O)CNC(C)C)cc1 (stereo not drawn) [practolol] | 95% | –
OC[C@H]1O[C@H](OC[C@H]2O[C@H](O[C@]3(CO)O[C@H](CO)[C@@H](O)[C@@H]3O)[C@H](O)[C@@H](O)[C@@H]2O)[C@H](O)[C@@H](O)[C@H]1O [raffinose] | 0.3% | –
O=C(O)c1cc(/N=N/c2ccc(S(=O)(=O)Nc3ccccn3)cc2)ccc1O [sulfasalazine, reference compound] | 12% | –
CCN1CCCC1CNC(=O)c1cc(S(N)(=O)=O)ccc1OC (stereo not drawn) [sulpiride] | 36% | –
NC[C@H]1CC[C@H](C(=O)O)CC1 [tranexamic acid] | 55% | –

Source: patent US11242337B2, “Compounds useful for treating gastrointestinal tract disorders” (Ardelyx, Inc., priority 2017, dated 2022)
